Source: US8258295B2, “Triazine derivatives, compositions containing such derivatives, and methods of treatment of cancer and autoimmune diseases using such derivatives” (Prometic Biosciences Inc., priority 2007, dated 2012)

Legend:
B16F10 melanoma = assay: Primary B16F10 melanoma tumor in mice; type: in vivo; conditions: C57BL/6 mice, IV on day 14, 16, 18; FIG. 2A/2B
Method: Female 6-8 week old C57BL/6 mice were injected intradermally on day 0 with 50 μl of 3.75×10^4 viable B16F10 melanoma cells from ATCC (source of cell culture, Dr. I. J. Fidler). On day 14, tumors reached […] and animals were randomized for treatments. Animals were then injected IV with saline (negative control) or compound (5 mg/kg, 25 mg/kg, or 50 mg/kg) on day 14, day 16, and day 18 or 10 mg/kg doxorubicin (positive control) on day 14. Mice were sacrificed on day 29. Body weight and tumor volume were recorded. Serial tumor volume was obtained by bi-dimensional diameter measurements with calipers, using the formula 0.4 (a×b^2) where “a” was the major tumor diameter and “b” the minor perpendicular diameter. An antitumor effect can be quantitated by T/C, which is calculated as (Treated tumor volume/Control tumor volume)×100%.

[1] = system: LPS-induced inflammation in the rat air-pouch model; assay: LPS-induced inflammation in rat air-pouch model; type: in vivo, rats; conditions: IV; for PGE2 production induced by LPS / TNFα production induced by LPS / LTB4 production induced by LPS / MCP-1 production induced by LPS: pouch exudate; for LTB4 production induced by LPS: FIG. 20C; for MCP-1 production induced by LPS: FIG. 20D; for white blood cell count: two hours after LPS induction, FIG. 19
Description: LPS-induced inflammation in the rat air-pouch model is believed to mimic the pathological process occurring in joint diseases such as arthritis. This is because the connective tissues formed along the air pouch are similar to those found in chronic joint diseases. LPS-induced inflammation and chronic joint diseases share other features, including markedly elevated PGE2, neutrophil infiltration, cytokine formation, and tissue damage.
An air cavity was produced at day −6 by subcutaneous injection of 20 ml of sterile air into the intrascapular area of the back of male Lewis rats (175 to 200 g). An additional 10 ml of air was injected into the cavity at day −3 to keep the space open. At day 0, compounds were administered intravenously and one hour later lipopolysaccharide (LPS: 2.5 ml of 2 μg/ml in PBS) was injected into the pouch to produce an inflammatory reaction. […] The pouch fluid was collected. The volume of exudates was measured and the number of leukocytes present in the exudates was determined with a Coulter counter. The differential count was determined by Wright-Giemsa staining. PGE2, LTB4, MCP, and TNFα were determined in the pouch exudates by specific ELISAs.

PC-3 cells [2] = assay: In vitro PC-3 cell migration or invasion assay (EGF-induced); type: cell-based, human; conditions: mitomycin C treated cells, 24 hr
Method: An in vitro migration assay was used to assess cell mobility in two dimensions. PC-3 cells were plated on a 12-well plate and grown to confluence in RPMI+10% FBS. A rubber policeman was used to create a denuded area. Confluent cells were quiesced by mitomycin C treatment (0.5 μM) at the concentration used to prevent the confounding issue of cell proliferation and protein synthesis. These cells were also incubated in the presence or absence of […] growth factor (EGF) and compound for 24 hr, then they were photographed.
The effects of EGF and compound V on PC-3 cell migration or invasion in the in vitro migration assay were determined. EGF promotes the migration or invasion of PC-3 cells treated with mitomycin compared to control (i.e., no added EGF).

DA-3 breast tumor = assay: Primary DA-3 breast tumor in mice; type: in vivo; conditions: FIG. 4B; compound I IV 50 mg/kg, alone or with cyclophosphamide; up to day 35
TNFα production = assay: LPS-induced TNFα production in J774A.1 cells (ELISA); type: cell-based; conditions: Mus musculus, J774.A1, 24 hr
Method: Effect of compounds on TNFα production was measured by ELISA using J774A.1 cells stimulated by LPS. J774A.1 cells were cultured in the presence or absence of LPS and compound. Cells were cultured for 24 hr at 37° C. and thereafter the supernatants were collected for the determination of the concentration of TNFα by ELISA as recommended by the manufacturer (BD Biosciences). Data was analyzed in Microsoft Excel software and the concentration of compound which inhibits 50% of TNFα production (IC50) was calculated using Prism software.

NZB×NZW mice = assay: Systemic lupus erythematosus model, NZB×NZW mice; type: in vivo; conditions: IV once a week from week 10 to week 46; FIG. 12
Description: New Zealand mice of the F1 hybrid cross NZB×NZW develop most of the autoimmune abnormalities seen in human SLE and die from SLE-like immune complex (IC)-mediated glomerulonephritis. The mice develop high titers of anti-DNA (double-strand and single-strand) and nuclear extract (NE) antibodies, as well as SLE-related clinical manifestations including leukopenia, thrombocytopenia, proteinuria, and glomerulonephritis. These mice develop anti-DNA antibodies after the age of three months, with a peak of anti-DNA antibody response occurring at seven months. Subsequently, the serum concentration of anti-DNA antibodies declines, presumably as a consequence of progressive uremia. The first serological manifestations of the disease occurs at about 150 days (i.e., five months). Their survival is evaluated at approximately 250 days.
Intravenous administration of compound or vehicle was undertaken once a week from week 10 to week 46.

PC-3 cells [3] = assay: In vitro PC-3 cell adhesion to extracellular matrix components; type: cell-based, human; conditions: different concentrations
Method: An in vitro cell adhesion assay was used to assess the effect of the compounds on cancer cell adhesion. Microtiter 96-well plates were coated for 1 hr at room temperature with […] of adhesive ligands previously diluted to 5 μg/ml for laminin, 10 μg/ml for MATRIGEL™ basement membrane matrix, or 10 μg/ml for collagen in PBS. The wells were blocked with a solution of 1% BSA in PBS (100 μl/well) for 1 hr at 37° C. Subconfluent cultures of PC-3 cells were incubated with a 5 μM solution of calcein-AM for 30 min at 37° C., and then free calcein-AM was washed out (30 min) by incubation of the PC-3 cells in media without calcein-AM. Calcein-AM-labeled cells were trypsinized, washed, and resuspended in adhesion buffer (RPMI-1640, 10% FBS supplemented with 1 mM of MgCl2). Labeled PC-3 cells were preincubated in absence or presence of compounds for 30 min and then a final volume of 100 μl of preincubated cells were allowed to attach at 37° C. in a humidified incubator for 15 min, 30 min, or 60 min at 37° C. Nonattached cells were removed by two washes with PBS and attached cells were lysed with 100 μl of a 1% Triton X-100 solution in PBS. Plates were read on a Tecan GENios Plus fluorescent reader with an excitation wavelength of 485 nm and an emission wavelength of 530 nm. The number of attached cells was calculated based upon standard curves. Nonspecific cell attachment (attachment to wells coated with BSA) was always less than 5%.

[4] = twelve hours after induction, FIG. 21B
[5] = twelve hours post-LPS induction, FIG. 21A
[6] = two hours after induction, FIG. 20A
[7] = two hours after induction, FIG. 20B

Row | Compound | T/C (treated/control tumor volume) (B16F10 melanoma) | PGE2 production induced by LPS [1, 4] | TNFα production induced by LPS [1, 5] | TNFα production induced by LPS [1, 6] | PGE2 production induced by LPS [1, 7] | LTB4 production induced by LPS ([1]; two hours after induction) | MCP-1 production induced by LPS ([1]; two hours after induction) | white blood cell count [1] | EGF-induced PC-3 migration or invasion (PC-3 cells [2]; 1 μM to 20 μM) | effect on DA-3 tumor growth (DA-3 breast tumor) | IC50 (TNFα production) | mortality of NZB×NZW mice (NZB×NZW mice) | EGF-induced PC-3 migration or invasion (PC-3 cells [2]; 1 μM to 10 μM) | PC-3 cell adhesion to laminin (PC-3 cells [3]; FIG. 1A) | PC-3 cell adhesion to MATRIGEL basement membrane matrix (PC-3 cells [3]; FIG. 1B) | PC-3 cell adhesion to collagen (PC-3 cells [3]; FIG. 1C)
1 | NCCCCCNc1nc(NCCc2ccc(S(N)(=O)=O)cc2)nc(Nc2cccc(F)c2)n1 [Compound II] | around 80% | weak and insignificant increase | no effect | increase the concentration of TNFα | weak and insignificant inhibition | weak inhibition | no influence | significant inhibition | – | – | – | – | – | – | – | –
2 | NCCCCCNc1nc(NCCc2ccc(O)cc2)nc(Nc2cccc(F)c2)n1 [Compound I] | around 80% | – | – | – | – | – | – | – | inhibition of the EGF-induced PC-3 migration or invasion | weak inhibitory effect | 29 µM | reduces the mortality | – | – | – | –
3 | NCCCCCNc1nc(NCCc2ccc(O)cc2)nc(Nc2ccc(F)cc2)n1 [Compound V] | < 40% | significant inhibition | significant inhibition | significant inhibition | significant inhibition | weak inhibition | weak inhibition | significant inhibition | – | – | 13 µM | – | inhibition of the EGF-induced PC-3 migration or invasion | inhibits PC-3 cells adhesion in a dose dependent fashion | inhibits PC-3 cells adhesion in a dose dependent fashion | inhibits PC-3 cells adhesion in a dose dependent fashion
